Drawing on patent US11613527B2, “Enzyme inhibitors” (KalVista Pharmaceuticals Limited, priority 2019, dated 2023), this text covers IC50 and solubility for 13 molecules.

Molecules are shown by their SMILES. Values after ≈ are worked out from the molar mass of the structure shown.

In one series the target is Human plasma kallikrein (Homo sapiens (Human), UniProt P03952). The series is described as follows: Determination of the IC50 for plasma kallikrein (fluorogenic substrate H-DPro-Phe-Arg-AFC). The format is biochemical. The conditions noted are these: class symbols A-D, read-out: IC50 (human PKal). The method in brief:
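IC50 values come from initial rates, monitored as the change in absorbance at 410 nm, of residual enzyme activity. Test compound was present at various concentrations with the fluorogenic substrate H-DPro-Phe-Arg-AFC, and the reaction was run at 25° C.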

The target in a further series is Human FXIa (Homo sapiens (Human), UniProt P03951). The series is described as follows: Determination of the % inhibition for FXIa (fluorogenic substrate Z-Gly-Pro-Arg-AFC; 40 μM or IC50). The format is biochemical. In a few lines:
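Inhibition measured from initial reaction rate, followed as absorbance change at 410 nm, with substrate Z-Gly-Pro-Arg-AFC at 25 °C. Compound tested at a single 40 μM dose for percent inhibition, or across several concentrations to derive IC50 against human FXIa.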

Series [1] is described as follows: Solubility after 24 hrs in Fasted State Simulated Intestinal Fluid (FaSSIF). The format is physicochemical. As to conditions: Fasted State Simulated Intestinal Fluid (FaSSIF), thermodynamic from solid, 24 hrs at 37° C., nominal concentration 1 mg/mL (as free base). In a few lines: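 Compound at nominal 1 mg/mL (as free base) in freshly prepared FaSSIF, shaken 24 h at 37 °C, ~500 rpm. After centrifugation at 15,000 g for 10 min at 37 °C, dissolved concentration measured by LCMS.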

The next series deals with Human KLK1 (Homo sapiens (Human), UniProt P06870). The series is described as follows: Determination of the IC50 for KLK1 (fluorogenic substrate H-DVal-Leu-Arg-AFC). The format is biochemical. The method in brief:
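Inhibition read as initial rate via optical absorbance change at 410 nm, giving IC50. Reactions combined human KLK1, the substrate H-DVal-Leu-Arg-AFC and varied compound concentrations at 25° C.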

Human KLK1, sequence (P06870 25-262): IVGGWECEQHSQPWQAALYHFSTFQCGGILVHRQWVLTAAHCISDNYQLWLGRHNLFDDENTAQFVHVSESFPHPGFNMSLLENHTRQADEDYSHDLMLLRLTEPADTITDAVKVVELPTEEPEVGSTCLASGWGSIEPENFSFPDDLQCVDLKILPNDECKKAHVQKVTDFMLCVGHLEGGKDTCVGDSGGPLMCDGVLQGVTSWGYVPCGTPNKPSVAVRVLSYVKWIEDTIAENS
Human plasma kallikrein, sequence (P03952 391-638): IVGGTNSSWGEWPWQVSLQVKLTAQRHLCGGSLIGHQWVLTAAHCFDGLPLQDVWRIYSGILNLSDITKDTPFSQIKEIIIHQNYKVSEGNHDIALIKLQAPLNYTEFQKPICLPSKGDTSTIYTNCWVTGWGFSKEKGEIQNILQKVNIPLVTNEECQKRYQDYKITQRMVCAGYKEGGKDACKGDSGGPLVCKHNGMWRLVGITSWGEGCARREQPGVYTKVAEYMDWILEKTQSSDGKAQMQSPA
Human plasma kallikrein, sequence (P03952 20-390 partner): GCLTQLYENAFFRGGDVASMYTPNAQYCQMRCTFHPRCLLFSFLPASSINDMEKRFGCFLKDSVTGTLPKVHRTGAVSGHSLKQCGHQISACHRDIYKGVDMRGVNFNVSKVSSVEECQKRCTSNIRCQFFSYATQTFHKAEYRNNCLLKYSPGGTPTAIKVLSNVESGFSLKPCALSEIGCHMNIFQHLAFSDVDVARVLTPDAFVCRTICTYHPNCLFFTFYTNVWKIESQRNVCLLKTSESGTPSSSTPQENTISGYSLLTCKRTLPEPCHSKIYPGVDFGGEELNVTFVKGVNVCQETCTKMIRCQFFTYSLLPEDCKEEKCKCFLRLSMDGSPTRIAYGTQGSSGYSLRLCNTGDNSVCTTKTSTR
Human FXIa, sequence (P03951 388-625): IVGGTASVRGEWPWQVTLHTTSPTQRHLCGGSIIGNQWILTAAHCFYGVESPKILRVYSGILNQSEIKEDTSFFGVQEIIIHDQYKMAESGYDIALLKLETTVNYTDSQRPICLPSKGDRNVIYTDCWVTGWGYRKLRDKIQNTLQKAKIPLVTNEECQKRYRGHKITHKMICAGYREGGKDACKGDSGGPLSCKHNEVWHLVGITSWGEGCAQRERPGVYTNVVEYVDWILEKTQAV
Human FXIa, sequence (P03951 19-387 partner): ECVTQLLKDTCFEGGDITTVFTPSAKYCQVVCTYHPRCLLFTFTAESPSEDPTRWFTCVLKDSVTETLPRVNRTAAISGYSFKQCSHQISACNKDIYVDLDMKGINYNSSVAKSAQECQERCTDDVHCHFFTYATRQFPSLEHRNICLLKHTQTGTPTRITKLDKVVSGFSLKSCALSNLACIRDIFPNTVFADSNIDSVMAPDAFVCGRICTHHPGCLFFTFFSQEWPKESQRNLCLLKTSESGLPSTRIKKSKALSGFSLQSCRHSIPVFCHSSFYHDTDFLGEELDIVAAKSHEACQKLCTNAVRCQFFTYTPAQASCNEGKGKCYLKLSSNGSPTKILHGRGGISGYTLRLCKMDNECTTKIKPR

With `COCc1nn(Cc2ccc3c(c2)CN(C(C)C)CC3)cc1C(=O)NCc1c(-n2cnc(C(F)(F)F)n2)ccc(OC)c1F` [Example 22, N-({2-fluoro-3-methoxy-6-[3-(trifluoromethyl)-1,2,4-triazol-1-yl]phenyl}methyl)-1-[(2-isopropyl-3,4-dihydro-1H-isoquinolin-7-yl)methyl]-3-(methoxymethyl)pyrazole-4-carboxamide], the concentration for half-maximal inhibition (IC50) at Human plasma kallikrein was less than 0.01 µM; at Human FXIa it was greater than 40 µM; against Human KLK1 it was greater than 40 µM. The solubility at 24 h in series [1] was 760 µg/mL (≈ 1230 µM).
In the case of `COCc1nn(Cc2ccc3ncccc3c2)cc1C(=O)NCc1c(-n2cnnn2)ccc(OC)c1F` [RC3, N-{[2-fluoro-3-methoxy-6-(1,2,3,4-tetrazol-1-yl)phenyl]methyl}-3-(methoxymethyl)-1-(quinolin-6-ylmethyl)pyrazole-4-carboxamide, reference compound], the half-inhibitory concentration (IC50) at Human plasma kallikrein was less than 0.01 µM; against Human FXIa, 1.92 µM; on Human KLK1, greater than 40 µM. Further, the concentration in solution in series [1] (solubility at 24 h) was 20 µg/mL (≈ 39.8 µM).
In the case of `COCc1nc(C(=O)NCc2c(-n3cc(C)nn3)ccc(OC)c2F)cn1Cc1ccc2c(c1)CN(C)CC2` [Example 148, N-{[2-fluoro-3-methoxy-6-(4-methyl-1,2,3-triazol-1-yl)phenyl]methyl}-2-(methoxymethyl)-1-[(2-methyl-3,4-dihydro-1H-isoquinolin-7-yl)methyl]imidazole-4-carboxamide], the half-maximal inhibitory concentration (IC50) at Human plasma kallikrein was 0.01 to 0.03 µM; at Human FXIa, greater than 40 µM; against Human KLK1, greater than 40 µM. In addition, the solubility at 24 h in series [1] was greater than 1000 µg/mL.
Regarding `CCN1CCc2cc(Cn3cc(C(=O)NCc4c(-n5cnc(C(F)(F)F)n5)ccc(OC)c4F)c(COC)n3)ccc2C1` [Example 51, 1-[(2-ethyl-3,4-dihydro-1H-isoquinolin-6-yl)methyl]-N-({2-fluoro-3-methoxy-6-[3-(trifluoromethyl)-1,2,4-triazol-1-yl]phenyl}methyl)-3-(methoxymethyl)pyrazole-4-carboxamide], the IC50 is less than 0.01 µM on Human plasma kallikrein, greater than 40 µM at Human FXIa and greater than 40 µM against Human KLK1. Moreover, the concentration in solution in series [1] (solubility at 24 h) was 770 µg/mL (≈ 1280 µM).
In the case of `COc1ccc(-n2cc(C)nn2)c(CNC(=O)c2cncc(Cc3ccc4c(c3)CN(C)CC4)c2)c1F` [Example 161, N-{[2-fluoro-3-methoxy-6-(4-methyl-1,2,3-triazol-1-yl)phenyl]methyl}-5-[(2-methyl-3,4-dihydro-1H-isoquinolin-7-yl)methyl]pyridine-3-carboxamide], the figures for the IC50 on Human plasma kallikrein, against Human FXIa and against Human KLK1 were less than 0.01 µM, greater than 40 µM and greater than 40 µM, respectively. Further, the solubility at 24 h in series [1] was greater than 1000 µg/mL.
In the case of `COc1ccc(-n2cc(C)nn2)c(CNC(=O)c2cn(Cc3ccc4c(n3)CCN(C)C4)nc2C(F)(F)F)c1F` [Example 138, N-{[2-fluoro-3-methoxy-6-(4-methyl-1,2,3-triazol-1-yl)phenyl]methyl}-1-[(6-methyl-7,8-dihydro-5H-1,6-naphthyridin-2-yl)methyl]-3-(trifluoromethyl)pyrazole-4-carboxamide], the IC50 on Human plasma kallikrein is 0.01 to 0.03 µM; on Human FXIa it was greater than 40 µM; against Human KLK1, greater than 40 µM. The molecule also showed a solubility at 24 h in series [1] greater than 1000 µg/mL.
For `COCc1nn(Cc2ccc3c(c2)CCN(C2CCC2)C3)cc1C(=O)NCc1c(-n2cc(C)nn2)ccc(OC)c1F` [Example 40, 1-[(2-cyclobutyl-3,4-dihydro-1H-isoquinolin-6-yl)methyl]-N-{[2-fluoro-3-methoxy-6-(4-methyl-1,2,3-triazol-1-yl)phenyl]methyl}-3-(methoxymethyl)pyrazole-4-carboxamide], the IC50 on Human plasma kallikrein was 0.01 to 0.03 µM; against Human FXIa, greater than 40 µM; against Human KLK1, greater than 40 µM. This molecule yielded a solubility at 24 h in series [1] greater than 1000 µg/mL.
For the molecule `COCc1nn(Cc2ccc3c(c2)CCN(C)C3)cc1C(=O)NCc1c(-n2cnc(C(F)(F)F)n2)ccc(OC)c1F` [Example 42, N-({2-fluoro-3-methoxy-6-[3-(trifluoromethyl)-1,2,4-triazol-1-yl]phenyl}methyl)-3-(methoxymethyl)-1-[(2-methyl-3,4-dihydro-1H-isoquinolin-6-yl)methyl]pyrazole-4-carboxamide], the IC50 on Human plasma kallikrein was less than 0.01 µM; against Human FXIa, greater than 40 µM; against Human KLK1 it was greater than 40 µM. The concentration in solution in series [1] (solubility at 24 h) was 870 µg/mL (≈ 1480 µM).
As to `COCc1nn(Cc2cnc(N3CCCC3)nc2)cc1C(=O)NCc1c(-n2cc(C(F)F)nn2)ccc(OC)c1F` [RC7, N-({6-[4-(difluoromethyl)-1,2,3-triazol-1-yl]-2-fluoro-3-methoxyphenyl}methyl)-3-(methoxymethyl)-1-{[2-(pyrrolidin-1-yl)pyrimidin-5-yl]methyl}pyrazole-4-carboxamide, reference compound], the IC50 is less than 0.01 µM on Human plasma kallikrein, 0.559 µM at Human FXIa and greater than 40 µM against Human KLK1. The same molecule showed a solubility at 24 h in series [1] of 10 µg/mL (≈ 17.5 µM).
For `CCN1CCc2cc(Cn3cc(C(=O)NCc4c(-n5cnc(C(F)F)n5)ccc(OC)c4F)c(COC)n3)ccc2C1` [Example 50, N-({6-[3-(difluoromethyl)-1,2,4-triazol-1-yl]-2-fluoro-3-methoxyphenyl}methyl)-1-[(2-ethyl-3,4-dihydro-1H-isoquinolin-6-yl)methyl]-3-(methoxymethyl)pyrazole-4-carboxamide], the values for the half-maximal inhibitory concentration (IC50) on Human plasma kallikrein, at Human FXIa and at Human KLK1 were less than 0.01 µM, greater than 40 µM and greater than 40 µM, respectively. The solubility at 24 h in series [1] was 720 µg/mL (≈ 1230 µM).
With `COCc1nn(Cc2ccc3c(c2)CN(C)CC3)cc1C(=O)NCc1c(-n2cnc(C(F)F)n2)ccc(OC)c1Cl` [Example 156, N-({2-chloro-6-[3-(difluoromethyl)-1,2,4-triazol-1-yl]-3-methoxyphenyl}methyl)-3-(methoxymethyl)-1-[(2-methyl-3,4-dihydro-1H-isoquinolin-7-yl)methyl]pyrazole-4-carboxamide], the 50% inhibitory concentration (IC50) was less than 0.01 µM on Human plasma kallikrein, greater than 40 µM at Human FXIa and greater than 40 µM against Human KLK1. Further, the solubility at 24 h in series [1] was greater than 1000 µg/mL.
Regarding `COCc1nn(Cc2ccc3c(c2)CCN(C)C3)cc1C(=O)NCc1c(-n2cnc(C(F)F)n2)ccc(OC)c1F` [Example 41, N-({6-[3-(difluoromethyl)-1,2,4-triazol-1-yl]-2-fluoro-3-methoxyphenyl}methyl)-3-(methoxymethyl)-1-[(2-methyl-3,4-dihydro-1H-isoquinolin-6-yl)methyl]pyrazole-4-carboxamide], the IC50 at Human plasma kallikrein was less than 0.01 µM; at Human FXIa it was greater than 40 µM; at Human KLK1, greater than 40 µM. Besides, the solubility at 24 h in series [1] was greater than 1000 µg/mL.
`COCc1nn(Cc2ccc3c(c2)CCN(C)C3)cc1C(=O)NCc1c(-n2cc(C(F)F)nn2)ccc(OC)c1F` [Example 34, N-({6-[4-(difluoromethyl)-1,2,3-triazol-1-yl]-2-fluoro-3-methoxyphenyl}methyl)-3-(methoxymethyl)-1-[(2-methyl-3,4-dihydro-1H-isoquinolin-6-yl)methyl]pyrazole-4-carboxamide]: the IC50 at Human plasma kallikrein is less than 0.01 µM; against Human FXIa it was greater than 40 µM; against Human KLK1, greater than 40 µM. In series [1], this molecule gave a solubility at 24 h greater than 1000 µg/mL.

As usually defined, the IC50 is the concentration at which inhibition is half-maximal. As usually defined, the solubility is how much of the substance goes into solution per volume.
